Structures can show the parent of a compound that is named as a salt. Where two headings read alike, the source gives them in different places.
Details: stirring

SMILES: C#CCN[C@@H]1CCc2ccccc21 [Rasagiline mesylate, R(+)-N-propargyl-1-aminoindan]
- Solubility (Observation: amount soluble, clear solution) (Capmul MCM (glyceryl mono- & dicaprate), RT): 64 mg/g soluble,
- Solubility (Observation: amount soluble, clear solution) (Cremophor EL (polyoxyethylene castor oil derivative), RT): 25 mg/g soluble,
- Solubility (Observation: amount soluble, clear solution) (Ethanol, RT): 66.6 mg/g soluble,
- Solubility (Observation) (Gelucire 44/14 (Lauroyl macrogol-32 glyceride), 45-50° C.): Not soluble
- Solubility (Observation) (Labrafil M 1944 CS (polyoxyethylated glycolysed glycerides), 37° C.): Not soluble
- Solubility (Observation) (Labrafil M 1944 CS (polyoxyethylated glycolysed glycerides), RT): Not soluble
- Solubility (Observation: amount soluble, clear solution) (Labrasol (Caprylocaproyl macrogol-8 glyceride), 37-40° C.): 10 mg/g soluble,
- Solubility (Observation) (Miglyol 810 (Caprylic/Capric Triglyceride), 37° C.): Not soluble
- Solubility (Observation) (Miglyol 810 (Caprylic/Capric Triglyceride), RT): Not soluble
- Solubility (Observation: amount soluble, clear solution) (Polyethylene Glycol 400, RT): 25 mg/g soluble,
- Solubility (Observation: amount soluble, clear solution) (Propylene Glycol, RT): 25 mg/g soluble,
- Solubility (Observation) (Soybean oil, 37° C.): Not soluble
- Solubility (Observation) (Soybean oil, RT): Not soluble
- Solubility (Observation: amount soluble, clear solution) (Transcutol (2-(2-ethoxyethoxy)ethanol), RT): 25 mg/g soluble,
- Solubility (Observation: amount soluble, clear solution) (Tween 80 (polyoxyethylene sorbitan fatty acid esters), RT): 10 mg/g soluble,

Reference: patent US20100008983A1 (priority 2008, published 2010)
